The supplement of paper PMC3974653
Where a name gives a salt, the structure may show the parent alone.

What follows are molecules tested on MTT (mouse pheochromocytoma) (assay: IC50 of cell viability (ATP content)). Details: (24 or 48 h).
How it was run: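 CellTiter-Glo ATP luminescence, read after 15 minutes, was used to assess MTT mouse pheochromocytoma cells treated for 24 or 48 hrs with library compounds (final 0.5 nM to 46 µM, 8 concentrations). The cells had been plated at 5 µl of 200,000 cells/ml per well in white 1536-well plates in DMEM with 5% FBS and 1% horse serum and cultured overnight at 37°C, 5% CO2. Normalisation set positive-control wells to 100% and DMSO wells to 0%. The IC50 was then determined by four-parameter logistic fitting.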
For `NCC1CCC(N)C(O[C@@H]2C(O)[C@H](O[C@H]3OC(CO)C(O)C(N)C3O)[C@@H](N)C[C@H]2N)O1.O=[S+]([O-])(O)O` (stereo not given in full) [DIBEKACIN], the “IC50 of cell viability” value was greater than 46 µM.
`[H][C@]1(\C=C(/Cl)Cl)[C@]([H])(C(=O)OCC2=C(F)C(F)=CC(F)=C2F)C1(C)C` [TRANSFLUTHRIN] was tested, and the “IC50 of cell viability” value was greater than 46 µM.
With `CCCC(=O)c1cc(O)c(O)cc1O` [1-(2,4,5-trihydroxyphenyl)-1-butanone] the “IC50 of cell viability” value was greater than 46 µM.
For `CCN(CC)CCNC(=O)c1cc(Cl)c(N)cc1OC` [METOCLOPRAMIDE], the “IC50 of cell viability” value was greater than 46 µM.
In the case of `CCCCCCCCCCCCCCC[C@H](O)[C@H](N)CO` (racemic) [DL-erythro-Dihydrosphingosine], the “IC50 of cell viability” value is reported as greater than 46 µM.
`O=C([O-])c1ccccc1O` [ZINC SALICYLATE] was tested, and the “IC50 of cell viability” value was greater than 46 µM.
With `C=CC[N+]1([C@H]2C[C@H]3[C@@H]4CC[C@H]5C[C@H](O)[C@@H](N6CCOCC6)C[C@]5(C)[C@H]4CC[C@]3(C)[C@H]2OC(C)=O)CCCC1` [ROCURONIUM BROMIDE] the “IC50 of cell viability” value was greater than 46 µM.
With `CCCCCCCCCC(CC)c1ccc([S+](=O)([O-])O)cc1` (stereo not given) [4-Dodecylbenzenesulfonic acid] the “IC50 of cell viability” value was greater than 46 µM.
With `O=C1O[C@H](CN2CCOCC2)CN1/N=C\c1ccc([N+](=O)[O-])o1` [Furaltadone hydrochloride] the “IC50 of cell viability” value was greater than 46 µM.
With `CCN1\C=C(\C(O)=O)C(=O)C2=C1N=C(N3CCNCC3)C(=C2)F` [Enoxacin] the “IC50 of cell viability” value was greater than 46 µM.
For `Oc1cc(O)c(Cl)cn1` [GIMERACIL], the “IC50 of cell viability” value was greater than 46 µM.
In the case of `C/C=C1/NN(CCCN2CCN(c3cccc(Cl)c3)CC2)C(=O)N1CCOc1ccccc1` [Nefazodone hydrochloride], the “IC50 of cell viability” value is reported as greater than 46 µM.
For `CN(C)CCOc1ccccc1Cc1ccccc1.Nc1ccc(C(=O)O)c(O)c1` [Phentoloxamine and PAS], the “IC50 of cell viability” value was greater than 46 µM.
For `CCCC(CCC)C(=O)O` [Valproic acid], the “IC50 of cell viability” value was greater than 46 µM.
With `O=C(O)CCC(=O)Nc1ccc([S+](=O)([O-])Nc2nccs2)cc1` [Succinylsulfathiazole] the “IC50 of cell viability” value was greater than 46 µM.
With `CCN(Cc1ccncc1)C(=O)C(CO)c1ccccc1` (stereo not given) [TROPICAMIDE] the “IC50 of cell viability” value was greater than 46 µM.
For `Oc1ccc(Cl)cc1` [p-Chlorophenol], the “IC50 of cell viability” value was greater than 46 µM.
`CCCCNc1ccc(C(=O)OCCN(C)C)cc1` was tested, and the “IC50 of cell viability” value was greater than 46 µM.
`CCC/1=N/N(CCCN2CCN(CC2)C3=CC(=CC=C3)Cl)C(=O)N1CCOC4=CC=CC=C4` [Nefazodone hydrochloride] was tested, and the “IC50 of cell viability” value was greater than 46 µM.
In the case of `OCCOc1ccccc1` [2-Phenoxyethanol], the “IC50 of cell viability” value is reported as greater than 46 µM.
In the case of `COC1=CC(=C2C(=O)[C@]\3(OC2=C1Cl)[C@H](C)CC(=O)\C=C3OC)OC` [Griseofulvin], the “IC50 of cell viability” value is reported as greater than 46 µM.
With `CCOP(=O)(NC(C)C)Oc1ccc(SC)c(C)c1` (stereo not given) [Fenamiphos] the “IC50 of cell viability” value was greater than 46 µM.
In the case of `[O-][S+](c1cc(Cl)cc(Cl)c1O)c1cc(Cl)cc(Cl)c1O` [Bithionoloxide], the “IC50 of cell viability” value is reported as greater than 46 µM.
`Cc1ccccc1OCC(O)CO` (stereo not given) [MEPHENESIN] was tested, and the “IC50 of cell viability” value was greater than 46 µM.
In the case of `NCCCCC(NC(=O)C1CCCN1C(=O)C1CSSCC(N)C(=O)NC(Cc2ccccc2)C(=O)NC(Cc2ccccc2)C(=O)NC(CCC(N)=O)C(=O)NC(CC(N)=O)C(=O)N1)C(=O)NCC(N)=O` (stereo not given) [FELYPRESSIN], the “IC50 of cell viability” value is reported as greater than 46 µM.
In the case of `C[C@]12CC[C@H]3[C@@H](C\C=C/4C[C@@H](O)CC[C@]34C)[C@@H]1CCC2=O` [Prasterona], the “IC50 of cell viability” value is reported as greater than 46 µM.
With `CCCCC(CC)COC(=O)c1ccccc1C(=O)O` (stereo not given) [Mono(2-ethylhexyl) phthalate] the “IC50 of cell viability” value was greater than 46 µM.
For `COc1ccc2c(C(=O)c3ccc(Cl)cc3)c(C)n(CC(=O)O)c2c1` [Clometacine], the “IC50 of cell viability” value was greater than 46 µM.
With `COC(=O)C1=C(C)NC(C)=C(C(=O)O[C@H]2CCN(Cc3ccccc3)C2)C1c1cccc([N+](=O)[O-])c1` (stereo not given in full) [Barnidipine] the “IC50 of cell viability” value was greater than 46 µM.
With `Cc1cccc(C)c1NC(=O)CN1CCN(CCCC(c2ccc(F)cc2)c2ccc(F)cc2)CC1` [Lidoflazine] the “IC50 of cell viability” value was greater than 46 µM.
`Cc1ccc2c(Cl)cc(Cl)c(O)c2n1` [5,7-Dichloro-8-hydroxy-2-methylquinoline] was tested, and the “IC50 of cell viability” value was greater than 46 µM.
`CC[C@H](C)[C@H](NC(=O)[C@H](CO)NC(=O)[C@H](CC(N)=O)NC(=O)[C@H](CC(C)C)NC(=O)[C@H](Cc1ccc(O)cc1)NC(=O)[C@H](CCCCN)NC(=O)[C@H](CCCCN)NC(=O)[C@@H](NC(=O)[C@H](C)NC(=O)[C@H](CCSC)NC(=O)[C@H](CCC(N)=O)NC(=O)[C@H](CCCCN)NC(=O)[C@H](CCCNC(=N)N)NC(=O)[C@H](CC(C)C)NC(=O)[C@H](CCCNC(=N)N)NC(=O)[C@@H](NC(=O)[C@H](Cc1ccc(O)cc1)NC(=O)[C@H](CC(N)=O)NC(=O)[C@H](CC(=O)O)NC(=O)[C@@H](NC(=O)[C@H](Cc1ccccc1)NC(=O)[C@@H](NC(=O)[C@H](C)NC(=O)[C@H](CC(=O)O)NC(=O)[C@H](CO)NC(=O)[C@@H](N)Cc1c[nH]cn1)C(C)C)[C@@H](C)O)[C@@H](C)O)C(C)C)C(=O)N[C@@H](CC(C)C)C(=O)N[C@@H](CC(N)=O)C(=O)O` [AVIPTADIL] was tested, and the “IC50 of cell viability” value was greater than 46 µM.
`C[C@@H]1[C@H](O)[C@@H](C)/C=C/C=C/C=C/C=C/C=C/C=C/C=C/[C@H](O[C@@H]2O[C@H](C)[C@@H](O)[C@H](N)[C@@H]2O)C[C@@H]2O[C@](O)(C[C@@H](O)C[C@@H](O)[C@H](O)CC[C@@H](O)C[C@@H](O)CC(=O)O[C@H]1C)C[C@H](O)[C@H]2C(=O)O` [Amphotericin B] was tested, and the “IC50 of cell viability” value was greater than 46 µM.
For `CO/N=C(\C(=O)N[C@@H]1C(=O)N2C(C(=O)O)=C(Cn3nnc(C)n3)CS[C@H]12)c1csc(N)n1` [CEFTERAM], the “IC50 of cell viability” value was greater than 46 µM.
In the case of `Cc1ccc(-c2ncc(Cl)cc2-c2ccc(S(C)(=O)=O)cc2)cn1` [ETORICOXIB], the “IC50 of cell viability” value is reported as greater than 46 µM.
For `CCN(CC)C(=O)[C@H]\1CN(C)[C@@H]\2CC3=C[NH]C4=C3C(=CC=C4)C2=C1` [(+)-Lysergic], the “IC50 of cell viability” value was greater than 46 µM.
With `CCC1OC(=O)C[C@@H](O)[C@H](C)[C@@H](OC2OC(C)CC(N(C)C)C2O)[C@@H](CC=O)C[C@@H](C)C(=O)/C=C/[C@]2(C)OC2C1C` (stereo not given in full) [ROSAMICIN] the “IC50 of cell viability” value was greater than 46 µM.
With `Cc1cc2c(OCC(CNC(C)(C)C)OC(=O)c3ccccc3)cccc2[nH]1` (stereo not given) [BOPINDOLOL] the “IC50 of cell viability” value was greater than 46 µM.
`CC(C)=CCCC(C)=CCCC(C)=CCC/C=C(\C)CC/C=C(\C)CCC=C(C)C` (stereo in doubt) [Squalene] was tested, and the “IC50 of cell viability” value was greater than 46 µM.
With `CC[C@@]12CCCN3CCc4c(n(c5ccccc45)[C@](O)(C(=O)OC)C1)C32` (stereo not given in full) [VINCAMINE] the “IC50 of cell viability” value was greater than 46 µM.
`CC(C[N+](C)(C)C)OC(N)=O` (stereo not drawn) [CARBAMYL-beta-METHYLCHOLINE] was tested, and the “IC50 of cell viability” value was greater than 46 µM.
With `COc1cc(C(=O)NCCCCCC(=O)O)cc(OC)c1OC` [ACIDUM CAPOBENICUM] the “IC50 of cell viability” value was greater than 46 µM.
`C=CCN1C(=O)C(CC(C)C)NC1=S` (stereo not given) [Albutoin] was tested, and the “IC50 of cell viability” value was greater than 46 µM.
In the case of `CO/N=C(\C(=O)N[C@@H]1C(=O)N2C(C(=O)[O-])=C(C[N+]3(C)CCCC3)CS[C@@H]12)c1csc(N)n1.Cl.O` [Cefepime hydrochloride], the “IC50 of cell viability” value is reported as greater than 46 µM.
In the case of `CNC(C)Cc1ccccc1OC` (stereo not given) [Methoxyphenamine], the “IC50 of cell viability” value is reported as greater than 46 µM.
With `CN(C)CCc1c[nH]c2cccc(O)c12` [Psilocin] the “IC50 of cell viability” value was greater than 46 µM.
With `CN(C)CCOC(=O)[C@@H](c1ccccc1)C1(O)CCCC1` [Cyclopentolate hydrochloride] the “IC50 of cell viability” value was greater than 46 µM.
In the case of `CN1CCN(C2Cc3ccccc3Sc3ccc(Cl)cc32)CC1.O=C(O)/C=C\C(=O)O` (stereo not given) [(?)-Octoclothepin maleate], the “IC50 of cell viability” value is reported as greater than 46 µM.
For `CC(C)(C#N)c1cc(Cn2cncn2)cc(C(C)(C)C#N)c1` [Anastrozole], the “IC50 of cell viability” value was greater than 46 µM.
With `CCN1\C=C(\C(O)=O)C(=O)C2=CC(=C(N3CCN[C@@H](C)C3)C(=C12)F)F` [Lomefloxacin HCl] the “IC50 of cell viability” value was greater than 46 µM.
With `CC(=O)Nc1ccc(CC(=O)O)cc1` [Actarit] the “IC50 of cell viability” value was greater than 46 µM.
With `O=C(O)c1cc(/N=N/c2ccc([S+](=O)([O-])Nc3ccccn3)cc2)ccc1O` [Salicylazosulfapyridine] the “IC50 of cell viability” value was greater than 46 µM.
With `CN[C@H]1[C@@H](O)[C@@H](NC)[C@@H]2O[C@]3(O)C(=O)C[C@@H](C)O[C@H]3O[C@H]2[C@H]1O` [Spectinomycin dihydrochloride] the “IC50 of cell viability” value was greater than 46 µM.
With `CN(C)CC[C@@H](c1ccc(Br)cc1)c1ccccn1` [Dexbrompheniramine maleate salt] the “IC50 of cell viability” value was greater than 46 µM.
With `CCCCCCCCCCCCCCCCCCOP(=O)([O-])OC1CC[N+](C)(C)CC1` [Perifosine] the “IC50 of cell viability” value was greater than 46 µM.
With `CNCCc1ccccn1.C[S+](=O)([O-])O` [Betahistine mesylate] the “IC50 of cell viability” value was greater than 46 µM.
With `NC1CCN(c2cccc(Cl)n2)CC1` the “IC50 of cell viability” value was greater than 46 µM.
In the case of `COc1ccc(OC)c(C(O)C(C)N)c1.Cl` (stereo not given) [METHOXAMINE HYDROCHLORIDE], the “IC50 of cell viability” value is reported as greater than 46 µM.
With `ClC1=CC(=CC=C1)N2CCN(CCCN3\N=C4\C=C/C=C\N4C3=O)CC2` [Trazodone hydrochloride] the “IC50 of cell viability” value was greater than 46 µM.
In the case of `O=C1CC[C@H](C(=O)N2CCCCC2)N1` [FASORACETAM HYDRATE], the “IC50 of cell viability” value is reported as greater than 46 µM.
For `CC[N+](CC)(CC)CCOC(=O)C(C1CCCC1)C1CCCC1` [DIPONIUM BROMIDE], the “IC50 of cell viability” value was greater than 46 µM.
For `CCCCC(CC)COC(=O)/C=C/c1ccc(OC)cc1` (stereo not given) [Octinoxate], the “IC50 of cell viability” value was greater than 46 µM.
`C[S+](=O)([O-])Nc1cc2occ(NC=O)c(=O)c2cc1Oc1ccccc1` [T 614] was tested, and the “IC50 of cell viability” value was greater than 46 µM.
For `C=C1Nc2ccccc2C(=O)N1c1ccccc1C` [METHAQUALONE], the “IC50 of cell viability” value was greater than 46 µM.
With `CN1CC(=O)N2C(Cc3c([nH]c4ccccc34)[C@H]2c2ccc3c(c2)OCO3)C1=O` (stereo not given in full) [TADALAFIL] the “IC50 of cell viability” value was greater than 46 µM.
